Measured values taken from patent US12060347B2 (BRISTOL-MYERS SQUIBB COMPANY, priority 2016, dated 2024).
Counter-ions that a name gives are not always drawn.

Biological target: T1, human PAR4 (Homo sapiens, UniProt Q96RI0)
T1 construct: expressed in transfected cells; host or cells: HEK293 PAR4 Clone 1.2A (BMS Arctic ID 383940)
T1 sequence (Q96RI0 18-385): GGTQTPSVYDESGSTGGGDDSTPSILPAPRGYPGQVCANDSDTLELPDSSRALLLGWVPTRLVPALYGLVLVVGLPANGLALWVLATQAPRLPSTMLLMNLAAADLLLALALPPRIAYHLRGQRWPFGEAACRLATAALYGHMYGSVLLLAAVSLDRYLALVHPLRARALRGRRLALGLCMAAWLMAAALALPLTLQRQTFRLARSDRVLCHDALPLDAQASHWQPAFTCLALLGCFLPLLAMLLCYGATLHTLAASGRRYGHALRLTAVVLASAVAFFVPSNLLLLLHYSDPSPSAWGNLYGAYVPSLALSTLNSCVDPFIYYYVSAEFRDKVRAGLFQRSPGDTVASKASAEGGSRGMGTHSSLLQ
Test: PAR4 FLIPR assay: antagonism of agonist-peptide-induced calcium mobilization in PAR4-expressing HEK293 cells
Type: cell-based
Details: H-Ala-Phe(4-F)-[…]NH2-induced intracellular calcium mobilization, 11-point curves

Structure (SMILES)	IC50 [nM]
COc1cnc2c(-c3nc4cc(F)c(OC[C@@H](C)OC(=O)Nc5cnc(C(C)(C)O)nc5)cc4s3)cc(C)cc2n1 [Example 497, (R)-1-((5-fluoro-2-(2-methoxy-7-methylquinoxalin-5-yl)benzo[d]thiazol-6-yl)oxy)propan-2-yl (2-(2-hydroxypropan-2-yl)pyrimidin-5-yl)carbamate]	1.3
COc1cnc2c(-c3nc4cc(F)c(OC[C@@H](C)OC(=O)Nc5ccc(C(C)(C)O)nc5)cc4s3)cc(C)cc2n1 [Example 498, (R)-1-((5-fluoro-2-(2-methoxy-7-methylquinoxalin-5-yl)benzo[d]thiazol-6-yl)oxy)propan-2-yl (6-(2-hydroxypropan-2-yl)pyridin-3-yl)carbamate]	1.3
COc1cnc2c(-c3nc4cc(F)c(O[C@@H](C)[C@@H](C)OC(=O)Nc5cnc(C(C)(C)O)nc5)cc4s3)cc(C)cc2n1 [Example 501, (2R,3S)-3-((5-fluoro-2-(2-methoxy-7-methylquinoxalin-5-yl)benzo[d]thiazol-6-yl)oxy)butan-2-yl (2-(2-hydroxypropan-2-yl)pyrimidin-5-yl)carbamate]	4
COc1cnc2c(-c3nc4cc(F)c(O[C@@H](C)[C@@H](C)OC(=O)Nc5cnc(CO)nc5)cc4s3)cc(C)cc2n1 [Example 502, (2R,3S)-3-((5-fluoro-2-(2-methoxy-7-methylquinoxalin-5-yl)benzo[d]thiazol-6-yl)oxy)butan-2-yl (2-(hydroxymethyl)pyrimidin-5-yl)carbamate]	1.7
COc1cnc2c(-c3nc4cc(F)c(O[C@@H](C)[C@@H](C)OC(=O)Nc5cnc(OCCO)nc5)cc4s3)cc(C)cc2c1 [Example 514, (2R,3S)-3-((5-fluoro-2-(3-methoxy-6-methylquinolin-8-yl)benzo[d]thiazol-6-yl)oxy)butan-2-yl (2-(2-hydroxyethoxy)pyrimidin-5-yl)carbamate]	1.9
C[C@H](Oc1cc2sc(-c3cc(Cl)cc4cc(OC(F)F)cnc34)nc2cc1F)[C@@H](C)OC(=O)Nc1cnc(OCCO)nc1 [Example 515, (2R,3S)-3-((2-(6-chloro-3-(difluoromethoxy)quinolin-8-yl)-5-fluorobenzo[d]thiazol-6-yl)oxy)butan-2-yl (2-(2-hydroxyethoxy)pyrimidin-5-yl)carbamate]	2.6
CC[C@H](COc1cc2sc(-c3cc(C)cc4nc(OC)cnc34)nc2cc1F)OC(=O)Nc1cccnc1 [Example 517, (R)-1-((5-fluoro-2-(2-methoxy-7-methylquinoxalin-5-yl)benzo[d]thiazol-6-yl)oxy)butan-2-yl pyridin-3-ylcarbamate]	1.1
COc1cnc2c(-c3nc4c(Cl)c(F)c(OCCCC(=O)Nc5cccnc5)cc4s3)cc(C)cc2n1 [Example 518, 4-((4-chloro-5-fluoro-2-(2-methoxy-7-methylquinoxalin-5-yl)benzo[d]thiazol-6-yl)oxy)-N-(pyridin-3-yl)butanamide]	13
COc1cnc2c(-c3nc4c(Cl)c(F)c(OCCNC(=O)Nc5cccnc5)cc4s3)cc(C)cc2n1 [Example 519, 1-(2-((4-chloro-5-fluoro-2-(2-methoxy-7-methylquinoxalin-5-yl)benzo[d]thiazol-6-yl)oxy)ethyl)-3-(pyridin-3-yl)urea]	16
COc1cnc2c(-c3nc4c(Cl)c(F)c(OCCN(C)C(=O)Nc5cnc(C)nc5)cc4s3)cc(C)cc2n1 [Example 520, 1-(2-((4-chloro-5-fluoro-2-(2-methoxy-7-methylquinoxalin-5-yl)benzo[d]thiazol-6-yl)oxy)ethyl)-1-methyl-3-(2-methylpyrimidin-5-yl)urea]	77
Cc1cc(-c2nc3cc(F)c(O[C@@H](C)[C@@H](C)OC(=O)Nc4cnc(C)nc4)cc3s2)c2ncc(N(C)C)nc2c1 [Example 522, (2R,3S)-3-((2-(2-(dimethylamino)-7-methylquinoxalin-5-yl)-5-fluorobenzo[d]thiazol-6-yl)oxy)butan-2-yl (2-methylpyrimidin-5-yl)carbamate]	20
CCOc1cnc2c(-c3nc4cc(F)c(O[C@@H](C)[C@@H](C)OC(=O)Nc5ccc(CCO)nc5)cc4s3)cc(C)cc2n1 [Example 526, (2R,3S)-3-((2-(2-ethoxy-7-methylquinoxalin-5-yl)-5-fluorobenzo[d]thiazol-6-yl)oxy)butan-2-yl (6-(2-hydroxyethyl)pyridin-3-yl)carbamate]	2
CCOc1cnc2c(-c3nc4cc(F)c(O[C@@H](C)[C@@H](C)OC(=O)Nc5ccc(C(=O)NCC(C)(C)O)nc5)cc4s3)cc(C)cc2n1 [Example 527, (2R,3S)-3-((2-(2-ethoxy-7-methylquinoxalin-5-yl)-5-fluorobenzo[d]thiazol-6-yl)oxy)butan-2-yl (6-((2-hydroxy-2-methylpropyl)carbamoyl)pyridin-3-yl)carbamate]	1.4
[2H]C([2H])(O)c1ncc(NC(=O)O[C@H](C)[C@H](C)Oc2cc3sc(-c4cc(C)cc5nc(OC)cnc45)nc3cc2F)cn1 [Example 528, (2R,3S)-3-((5-fluoro-2-(2-methoxy-7-methylquinoxalin-5-yl)benzo[d]thiazol-6-yl)oxy)butan-2-yl (2-(hydroxymethyl)pyrimidin-5-yl)carbamate]	5
COc1cnc2c(-c3nc4cc(F)c(OC[C@@H](C)OC(=O)Nc5ccc(C(=O)NCC(C)(C)OP(=O)(O)O)nc5)cc4s3)cc(C)cc2n1 [Example 530, (R)-1-((5-fluoro-2-(2-methoxy-7-methylquinoxalin-5-yl)benzo[d]thiazol-6-yl)oxy) propan-2-yl (6-((2-methyl-2-(phosphonooxy)propyl)carbamoyl)pyridin-3-yl)carbamate, TFA]	1.8
CCOc1cnc2c(-c3nc4cc(F)c(O[C@@H](C)[C@@H](C)OC(=O)Nc5cnc(COP(=O)(O)O)nc5)cc4s3)cc(C)cc2n1 [Example 532, (2R,3S)-3-((2-(2-ethoxy-7-methylquinoxalin-5-yl)-5-fluorobenzo[d]thiazol-6-yl)oxy)butan-2-yl (2-((phosphonooxy)methyl)pyrimidin-5-yl)carbamate]	1.7

The remaining lines, values ahead:

IC50 [nM]	Structure (SMILES)
4.4	COc1cnc2c(-c3nc4cc(F)c(O[C@@H](C)[C@@H](C)OC(=O)Nc5ccc(CO)nc5)cc4s3)cc(C)cc2n1 [Example 499, (2R,3S)-3-((5-fluoro-2-(2-methoxy-7-methylquinoxalin-5-yl)benzo[d]thiazol-6-yl)oxy)butan-2-yl (6-(hydroxymethyl)pyridin-3-yl)carbamate]
3.8	COc1cnc2c(-c3nc4cc(F)c(O[C@@H](C)[C@@H](C)OC(=O)Nc5ccc(C(C)(C)O)nc5)cc4s3)cc(C)cc2n1 [Example 500, (2R,3S)-3-((5-fluoro-2-(2-methoxy-7-methylquinoxalin-5-yl)benzo[d]thiazol-6-yl)oxy)butan-2-yl (6-(2-hydroxypropan-2-yl)pyridin-3-yl)carbamate]
1.2	COc1cnc2c(-c3nc4cc(F)c(O[C@@H](C)[C@@H](C)OC(=O)Nc5cnc(OCCO)nc5)cc4s3)cc(Cl)cc2c1 [Example 512, (2R,3S)-3-((2-(6-chloro-3-methoxyquinolin-8-yl)-5-fluorobenzo[d]thiazol-6-yl)oxy)butan-2-yl (2-(2-hydroxyethoxy)pyrimidin-5-yl)carbamate]
1.1	CCOc1cnc2c(-c3nc4cc(F)c(O[C@@H](C)[C@@H](C)OC(=O)Nc5cnc(OCCO)nc5)cc4s3)cc(Cl)cc2c1 [Example 513, (2R,3S)-3-((2-(6-chloro-3-ethoxyquinolin-8-yl)-5-fluorobenzo[d]thiazol-6-yl)oxy)butan-2-yl (2-(2-hydroxyethoxy)pyrimidin-5-yl)carbamate]
24	COc1cnc2c(-c3nc4cc(F)c(O[C@@H](C)[C@@H](C)OC(=O)Nc5ccc(CN6CCOCC6)nc5)cc4s3)cc(C)cc2n1 [Example 521, (2R,3S)-3-((5-fluoro-2-(2-methoxy-7-methylquinoxalin-5-yl)benzo[d]thiazol-6-yl)oxy) butan-2-yl (6-(morpholinomethyl)pyridin-3-yl)carbamate]
2.6	COc1cnc2c(-c3nc4cc(F)c(O[C@@H](C)[C@@H](C)OC(=O)Nc5ccc(C(=O)O)nc5)cc4s3)cc(C)cc2n1 [Example 523, 5-(((((2R,3S)-3-((5-fluoro-2-(2-methoxy-7-methylquinoxalin-5-yl)benzo[d]thiazol-6-yl)oxy)butan-2-yl)oxy)carbonyl)amino)picolinic acid, TFA]
84	COc1cnc2c(-c3nc4cc(F)c(O[C@@H](C)[C@@H](C)OC(N)=O)cc4s3)cc(C)cc2n1 [Example 524, (2R,3S)-3-((5-fluoro-2-(2-methoxy-7-methylquinoxalin-5-yl)benzo[d]thiazol-6-yl)oxy) butan-2-yl carbamate]
0.9	CCOc1cnc2c(-c3nc4cc(F)c(O[C@@H](C)[C@@H](C)OC(=O)Nc5cnc(CO)nc5)cc4s3)cc(C)cc2n1 [Example 529, (2R,3S)-3-((2-(2-ethoxy-7-methylquinoxalin-5-yl)-5-fluorobenzo[d]thiazol-6-yl)oxy)butan-2-yl (2-(hydroxymethyl)pyrimidin-5-yl)carbamate]
0.7	CCOc1cnc2c(-c3nc4cc(F)c(O[C@@H](C)[C@@H](C)OC(=O)Nc5ccc(C(=O)NC[C@H](C)O)nc5)cc4s3)cc(C)cc2n1 [Example 531, (2R,3S)-3-((2-(2-ethoxy-7-methylquinoxalin-5-yl)-5-fluorobenzo[d]thiazol-6-yl)oxy)butan-2-yl (6-(((S)-2-hydroxypropyl)carbamoyl)pyridin-3-yl)carbamate, TFA]
